Where “and” joins values, the source holds several entries; their conditions need not be identical. Equal entries are not always repeated.
Molecular target: mTOR/GbL/Raptor (mTORC1) (Homo sapiens, UniProt P42345)
Assay: mTOR/GbL/Raptor (mTORC1) ELISA assay
Assay type: biochemical
Conditions: phosphorylation of 4E-BP1; 0.2 nM mTORC1, 10 μM ATP; read-out: IC50 in this assay (mTORC1 ELISA)
Method in brief: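 ELISA read-out: phospho-4E-BP1 captured on Ni-chelate plates and detected with anti-phospho antibody plus HRP-anti-IgG luminescence. The kinase step ran 120 min at ambient temperature with 0.2 nM human mTORC1, 10 µM ATP, 50 nM His-4E-BP1, 10 mM MnCl2, pH 7.2 HEPES.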

CC[C@H]1CCc2c(ncnc2N2CCOc3ccc(-c4cnc5nc([C@H](C)N)[nH]c5c4)cc3C2)C1 [Example 298, (1S)-1-(6-{4-[(7S)-7-ethyl-5,6,7,8-tetrahydroquinazolin-4-yl]-2,3,4,5-tetrahydro-1,4-benzoxazepin-7-yl}-1H-imidazo[4,5-b]pyridin-2-yl)ethanamine]
IC50: 50 to 250 nM

Cc1nc2ccc(-c3ccc4c(c3)CN(c3ncnc5cc(C(F)(F)F)ccc35)CCO4)cc2[nH]1 [Example 36, 7-(2-methyl-1H-benzimidazol-6-yl)-4-[7-(trifluoromethyl)quinazolin-4-yl]-2,3,4,5-tetrahydro-1,4-benzoxazepine]
IC50: 50 to 250 nM

CC1(C)CCc2ncnc(N3CCOc4ccc(-c5cnc6nccnc6c5)cc4C3)c2C1 [Example 477, 4-(6,6-dimethyl-5,6,7,8-tetrahydroquinazolin-4-yl)-7-pyrido[2,3-b]pyrazin-7-yl-2,3,4,5-tetrahydro-1,4-benzoxazepine]
IC50: 250 to 1000 nM

Cc1nc2cc(-c3ccc4c(c3)CN(c3nc([C@@H]5CCCN5)nc5c3CC(C)(C)CC5)CCO4)cnc2[nH]1 [Example 507, 4-{6,6-dimethyl-2-[(2S)-pyrrolidin-2-yl]-5,6,7,8-tetrahydroquinazolin-4-yl}-7-(2-methyl-3H-imidazo[4,5-b]pyridin-6-yl)-2,3,4,5-tetrahydro-1,4-benzoxazepine]
IC50: ≤ 10 nM

COc1ccc2c(N3CCOc4ccc(-c5cnc6nc(C)[nH]c6c5)cc4C3)ncnc2c1 [Example 565, 7-(2-methyl-1H-imidazo[4,5-b]pyridin-6-yl)-4-[7-(methyloxy)quinazolin-4-yl]-2,3,4,5-tetrahydro-1,4-benzoxazepine]
IC50: 50 to 250 nM

CC1(C)CCc2ncnc(N3CCOc4ccc(-c5cnc(N)c(S(=O)(=O)NC[C@H]6CCNC6)c5)cc4C3)c2C1 [Example 391, 2-amino-5-[4-(6,6-dimethyl-5,6,7,8-tetrahydroquinazolin-4-yl)-2,3,4,5-tetrahydro-1,4-benzoxazepin-7-yl]-N-[(3S)-pyrrolidin-3-ylmethyl]pyridine-3-sulfonamide]
IC50: 10 to 50 nM

COc1ccc2c(N3CCOc4ccc(-c5ccc6[nH]c(=O)[nH]c6c5)cc4C3)nc(C)nc2c1 [Example 296, 5-{4-[2-methyl-7-(methyloxy)quinazolin-4-yl]-2,3,4,5-tetrahydro-1,4-benzoxazepin-7-yl}-1,3-dihydro-2H-benzimidazol-2-one]
IC50: ≥ 2000 nM

CC(C)(N)CCNS(=O)(=O)c1cc(-c2ccc3c(c2)CN(c2ncnc4c2CC(C)(C)CC4)CCO3)cnc1N [Example 413, 2-amino-N-(3-amino-3-methylbutyl)-5-[4-(6,6-dimethyl-5,6,7,8-tetrahydroquinazolin-4-yl)-2,3,4,5-tetrahydro-1,4-benzoxazepin-7-yl]pyridine-3-sulfonamide]
IC50: 50 to 250 nM

CCc1c(C)ncnc1N1CCOc2ccc(-c3cnc4nc(C)[nH]c4c3)cc2C1 [Example 470, 4-(5-ethyl-6-methylpyrimidin-4-yl)-7-(2-methyl-1H-imidazo[4,5-b]pyridin-6-yl)-2,3,4,5-tetrahydro-1,4-benzoxazepine]
IC50: 50 to 250 nM

Cc1nc2ccc(-c3ccc4c(c3)CN(c3ncnc(Nc5ccccc5)c3C)CCO4)cc2[nH]1 [Example 77, 5-methyl-6-[7-(2-methyl-1H-benzimidazol-6-yl)-2,3-dihydro-1,4-benzoxazepine-4(5H)-yl]-N-phenylpyrimidin-4-amine]
IC50: 1000 to 2000 nM

COc1ccc(-c2ccc3c(c2)CN(c2nc(CN(C)C)nc4c2CC(C)(C)CC4)CCO3)cc1OC(F)F [Example 649, 1-{4-[7-{3-[(difluoromethyl)oxy]-4-(methyloxy)phenyl}-2,3-dihydro-1,4-benzoxazepin-4(5H)-yl]-6,6-dimethyl-5,6,7,8-tetrahydroquinazolin-2-yl}-N,N-dimethylmethanamine]
IC50: 250 to 1000 nM

CC(=O)Nc1nc2cc(-c3ccc4c(c3)CN(c3nc(CN(C)C)nc5c3CC(C)(C)CC5)CCO4)cnc2s1 [Example 617, N-[6-(4-{2-[(dimethylamino)methyl]-6,6-dimethyl-5,6,7,8-tetrahydroquinazolin-4-yl}-2,3,4,5-tetrahydro-1,4-benzoxazepin-7-yl)[1,3]thiazolo[5,4-b]pyridin-2-yl]acetamide]
IC50: 10 to 50 nM and 50 to 250 nM

Cc1nc2ncc(-c3ccc4c(c3)CN(c3nc(CN(C)C5CC5)nc5c3CC(C)(C)CC5)CCO4)cc2[nH]1 [Example 604, N-({6,6-dimethyl-4-[7-(2-methyl-1H-imidazo[4,5-b]pyridin-6-yl)-2,3-dihydro-1,4-benzoxazepin-4(5H)-yl]-5,6,7,8-tetrahydroquinazolin-2-yl}methyl)-N-methylcyclopropanamaine]
IC50: 10 to 50 nM

CC1CCc2c(ncnc2N2CCOc3ccc(-c4cnc5nc(N)[nH]c5c4)cc3C2)C1 (stereo not shown) [Example 179, 6-[4-(7-methyl-5,6,7,8-tetrahydroquinazolin-4-yl)-2,3,4,5-tetrahydro-1,4-benzoxazepin-7-yl]-1H-imidazo[4,5-b]pyridin-2-amine]
IC50: 10 to 50 nM

COC(=O)Nc1nc2ccc(-c3ccc4c(c3)CN(c3nc(C)nc5ccccc35)CCO4)cc2[nH]1 [Example 108, methyl {6-[4-(2-methylquinazolin-4-yl)-2,3,4,5-tetrahydro-1,4-benzoxazepin-7-yl]-1H-benzimidazol-2-yl}carbamate]
IC50: 250 to 1000 nM

Cc1nc(CN(C)C)nc(N2CCOc3ccc(-c4cnc5sc(N)nc5c4)cc3C2)c1CC(C)C [Example 665, 6-(4-{2-[(dimethylamino)methyl]-6-methyl-5-(2-methylpropyl)pyrimidin-4-yl}-2,3,4,5-tetrahydro-1,4-benzoxazepin-7-yl)[1,3]thiazolo[5,4-b]pyridin-2-amine]
IC50: 10 to 50 nM

COc1cc2ncnc(N3CCOc4ccc(-c5ccc6nc(C)[nH]c6c5)cc4C3)c2cc1Cl [Example 38, 4-[6-chloro-7-(methyloxy)quinazolin-4-yl]-7-(2-methyl-1H-benzimidazol-6-yl)-2,3,4,5-tetrahydro-1,4-benzoxazepine]
IC50: 10 to 50 nM

Cc1ncnc(N2CCOc3ccc(-c4cnc5nc(N)cn5c4)cc3C2)c1Cc1ccc(F)cc1 [Example 144, 6-(4-{5-[(4-fluorophenyl)methyl]-6-methylpyrimidin-4-yl}-2,3,4,5-tetrahydro-1,4-benzoxazepin-7-yl)imidazo[1,2-a]pyrimidin-2-amine]
IC50: 10 to 50 nM

CC1(C)CCc2ncnc(N3CCOc4ccc(-c5cnc(N)c(S(=O)(=O)NC(C)(C)CO)c5)cc4C3)c2C1 [Example 367, 2-amino-5-[4-(6,6-dimethyl-5,6,7,8-tetrahydroquinazolin-4-yl)-2,3,4,5-tetrahydro-1,4-benzoxazepin-7-yl]-N-(2-hydroxy-1,1-dimethylethyl)pyridine-3-sulfonamide]
IC50: 10 to 50 nM

CC1(C)CCc2ncnc(N3CCOc4ccc(-c5cnc(Nc6ccccc6)c(NS(C)(=O)=O)c5)cc4C3)c2C1 [Example 629, N-{5-[4-(6,6-dimethyl-5,6,7,8-tetrahydroquinazolin-4-yl)-2,3,4,5-tetrahydro-1,4-benzoxazepin-7-yl]-2-(phenylamino)pyridin-3-yl}methanesulfonamide]
IC50: 250 to 1000 nM

CC1(C)CCc2ncnc(N3CCOc4ccc(-c5cnc(N)c(S(=O)(=O)N6CCCC(N)C6)c5)cc4C3)c2C1 (stereo not shown) [Example 444, 3-[(3-aminopiperidin-1-yl)sulfonyl]-5-[4-(6,6-dimethyl-5,6,7,8-tetrahydroquinazolin-4-yl)-2,3,4,5-tetrahydro-1,4-benzoxazepin-7-yl]pyridin-2-amine]
IC50: 10 to 50 nM

Cc1c(NC2CCN(C)CC2)ncnc1N1CCOc2ccc(-c3cnc4nc(C5CC5)[nH]c4c3)cc2C1 [Example 531, 6-[7-(2-cyclopropyl-1H-imidazo[4,5-b]pyridin-6-yl)-2,3-dihydro-1,4-benzoxazepin-4(5H)-yl]-5-methyl-N-(1-methylpiperidin-4-yl)pyrimidin-4-amine]
IC50: 250 to 1000 nM

Cc1nc2ccc(-c3ccc4c(c3)CN(c3ccnc(C)c3Cc3cccc(F)c3)CCO4)cc2[nH]1 [Example 103, 4-{3-[(3-fluorophenyl)methyl]-2-methylpyridin-4-yl}-7-(2-methyl-1H-benzimidazol-6-yl)-2,3,4,5-tetrahydro-1,4-benzoxazepine]
IC50: ≤ 10 nM

CCNc1nc2ccc(-c3ccc4c(c3)CN(c3nc(C)nc5ccccc35)CCO4)cc2[nH]1 [Example 228, N-ethyl-6-[4-(2-methylquinazolin-4-yl)-2,3,4,5-tetrahydro-1,4-benzoxazepin-7-yl)-1H-benzimidazol-2-amine]
IC50: 50 to 250 nM

CC1(C)CCc2ncnc(N3CCOc4ccc(-c5cnc(N)c(S(=O)(=O)NCC6CCNCC6)c5)cc4C3)c2C1 [Example 378, 2-amino-5-[4-(6,6-dimethyl-5,6,7,8-tetrahydroquinazolin-4-yl)-2,3,4,5-tetrahydro-1,4-benzoxazepin-7-yl]-N-(piperidin-4-ylmethyl)pyridine-3-sulfonamide]
IC50: 50 to 250 nM

CC1(C)CCc2ncnc(N3CCOc4ccc(-c5cnc(N)c(S(=O)(=O)NCCCO)c5)cc4C3)c2C1 [Example 375, 2-amino-5-[4-(6,6-dimethyl-5,6,7,8-tetrahydroquinazolin-4-yl)-2,3,4,5-tetrahydro-1,4-benzoxazepin-7-yl]-N-(3-hydroxypropyl)pyridine-3-sulfonamide]
IC50: ≤ 10 nM

CCNc1nc2ccc(-c3ccc4c(c3)CN(c3ncnc(NCC)c3C)CCO4)cc2[nH]1 [Example 643, N-ethyl-6-{4-[6-(ethylamino)-5-methylpyrimidin-4-yl]-2,3,4,5-tetrahydro-1,4-benzoxazepin-7-yl}-1H-benzimidazol-2-amine]
IC50: 250 to 1000 nM

Cc1nc2ncc(-c3ccc4c(c3)CN(c3nc(-c5ccccn5)nc5c3CC(C)(C)CC5)CCO4)cc2[nH]1 [Example 473, 4-(6,6-dimethyl-2-pyridin-2-yl-5,6,7,8-tetrahydroquinazolin-4-yl)-7-(2-methyl-1H-imidazo[4,5-b]pyridin-6-yl)-2,3,4,5-tetrahydro-1,4-benzoxazepine]
IC50: 10 to 50 nM
